Source: patent US20240024488A1, “COMPOUNDS AND USES THEREOF” (Foghorn Therapeutics Inc., priority 2020, published 2024)

Columns and labels:
[1] = biological target: T1, HiBit-BRM fusion protein (Homo sapiens, UniProt P51531); test: HiBiT-BRM cell-based degradation assay (Nano-Glo HiBiT Lytic Detection, 24 h); conditions: HeLa cell line expressing HiBiT-BRM; for DC50: read-out: BRM HiBit Degradation IC50
T1 construct: expressed in transfected cells
Procedure, shortened: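 HeLa cells stably expressing HiBiT-BRM were treated for 24 h with compounds (10-point 3-fold dilutions, 30 μM final top dose, in duplicate). HiBiT was detected by lytic LgBiT complementation luminescence. % degradation was normalized to DMSO (high control) and 2 μM of a reference BRM/BRG1 degrader (low control).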

[2] = biological target: T2, HiBit-BRG1 fusion protein (Homo sapiens, UniProt P51532); test: HiBiT-BRG1 cell-based degradation assay (Nano-Glo HiBiT Lytic Detection, 24 h); conditions: HeLa cell line expressing HiBit-BRG1 and LgBit; for Dmax: read-out: BRG1 HiBit Degradation Maximum (%); for DC50: read-out: BRMG1 HiBit Degradation IC50
T2 construct: expressed in transfected cells
Procedure, shortened: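 Stable HeLa line co-expressing HiBit-BRG1 and LgBit, 5000 cells/well, treated 24 h in a tissue culture incubator. Lysed with Nano-Glo HiBiT lytic reagent, luminescence read. % degradation normalized to DMSO (high control) and 2 μM reference BRM/BRG1 degrader (low control).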

T1 sequence (P51531 whole entry, the tested form may be a part): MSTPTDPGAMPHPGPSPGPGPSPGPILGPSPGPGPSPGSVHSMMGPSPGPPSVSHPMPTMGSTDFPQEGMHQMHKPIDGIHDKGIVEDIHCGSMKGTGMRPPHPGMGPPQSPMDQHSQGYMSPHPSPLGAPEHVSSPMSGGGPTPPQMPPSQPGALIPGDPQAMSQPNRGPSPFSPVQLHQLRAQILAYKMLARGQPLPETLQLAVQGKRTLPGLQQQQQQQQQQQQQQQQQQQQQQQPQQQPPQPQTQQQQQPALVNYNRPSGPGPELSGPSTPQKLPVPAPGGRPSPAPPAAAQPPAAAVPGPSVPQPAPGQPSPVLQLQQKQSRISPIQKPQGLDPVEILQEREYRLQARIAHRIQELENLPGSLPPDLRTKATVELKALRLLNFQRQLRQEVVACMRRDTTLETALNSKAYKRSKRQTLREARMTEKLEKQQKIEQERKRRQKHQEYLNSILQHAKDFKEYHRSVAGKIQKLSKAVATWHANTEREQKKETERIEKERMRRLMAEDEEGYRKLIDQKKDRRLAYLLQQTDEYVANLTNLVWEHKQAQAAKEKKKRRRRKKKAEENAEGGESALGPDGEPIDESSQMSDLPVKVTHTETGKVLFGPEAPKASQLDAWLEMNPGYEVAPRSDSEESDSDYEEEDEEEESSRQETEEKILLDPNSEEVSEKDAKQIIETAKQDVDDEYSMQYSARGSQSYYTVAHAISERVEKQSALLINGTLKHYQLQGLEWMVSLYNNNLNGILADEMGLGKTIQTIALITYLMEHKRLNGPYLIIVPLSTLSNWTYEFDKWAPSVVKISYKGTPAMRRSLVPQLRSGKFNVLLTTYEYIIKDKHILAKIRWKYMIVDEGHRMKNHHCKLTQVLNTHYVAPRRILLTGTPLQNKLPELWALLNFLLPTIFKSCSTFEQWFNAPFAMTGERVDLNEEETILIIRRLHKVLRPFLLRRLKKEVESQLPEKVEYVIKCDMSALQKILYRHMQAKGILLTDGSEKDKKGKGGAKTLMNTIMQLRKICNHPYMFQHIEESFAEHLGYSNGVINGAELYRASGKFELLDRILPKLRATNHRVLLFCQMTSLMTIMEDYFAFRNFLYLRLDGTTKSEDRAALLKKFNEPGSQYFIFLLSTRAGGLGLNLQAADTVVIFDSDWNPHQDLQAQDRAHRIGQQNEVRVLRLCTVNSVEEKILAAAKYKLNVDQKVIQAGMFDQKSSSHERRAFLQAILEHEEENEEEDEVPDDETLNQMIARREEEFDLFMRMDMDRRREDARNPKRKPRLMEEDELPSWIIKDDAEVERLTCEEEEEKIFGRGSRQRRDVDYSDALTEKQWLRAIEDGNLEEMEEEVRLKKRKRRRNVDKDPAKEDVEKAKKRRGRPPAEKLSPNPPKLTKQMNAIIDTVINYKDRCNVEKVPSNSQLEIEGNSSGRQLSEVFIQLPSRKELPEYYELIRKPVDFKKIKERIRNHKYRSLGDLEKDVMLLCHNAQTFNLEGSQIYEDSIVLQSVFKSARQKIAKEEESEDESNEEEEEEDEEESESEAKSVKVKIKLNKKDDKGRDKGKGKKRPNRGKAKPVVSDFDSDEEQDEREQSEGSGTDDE
T2 sequence (P51532 whole entry, the tested form may be a part): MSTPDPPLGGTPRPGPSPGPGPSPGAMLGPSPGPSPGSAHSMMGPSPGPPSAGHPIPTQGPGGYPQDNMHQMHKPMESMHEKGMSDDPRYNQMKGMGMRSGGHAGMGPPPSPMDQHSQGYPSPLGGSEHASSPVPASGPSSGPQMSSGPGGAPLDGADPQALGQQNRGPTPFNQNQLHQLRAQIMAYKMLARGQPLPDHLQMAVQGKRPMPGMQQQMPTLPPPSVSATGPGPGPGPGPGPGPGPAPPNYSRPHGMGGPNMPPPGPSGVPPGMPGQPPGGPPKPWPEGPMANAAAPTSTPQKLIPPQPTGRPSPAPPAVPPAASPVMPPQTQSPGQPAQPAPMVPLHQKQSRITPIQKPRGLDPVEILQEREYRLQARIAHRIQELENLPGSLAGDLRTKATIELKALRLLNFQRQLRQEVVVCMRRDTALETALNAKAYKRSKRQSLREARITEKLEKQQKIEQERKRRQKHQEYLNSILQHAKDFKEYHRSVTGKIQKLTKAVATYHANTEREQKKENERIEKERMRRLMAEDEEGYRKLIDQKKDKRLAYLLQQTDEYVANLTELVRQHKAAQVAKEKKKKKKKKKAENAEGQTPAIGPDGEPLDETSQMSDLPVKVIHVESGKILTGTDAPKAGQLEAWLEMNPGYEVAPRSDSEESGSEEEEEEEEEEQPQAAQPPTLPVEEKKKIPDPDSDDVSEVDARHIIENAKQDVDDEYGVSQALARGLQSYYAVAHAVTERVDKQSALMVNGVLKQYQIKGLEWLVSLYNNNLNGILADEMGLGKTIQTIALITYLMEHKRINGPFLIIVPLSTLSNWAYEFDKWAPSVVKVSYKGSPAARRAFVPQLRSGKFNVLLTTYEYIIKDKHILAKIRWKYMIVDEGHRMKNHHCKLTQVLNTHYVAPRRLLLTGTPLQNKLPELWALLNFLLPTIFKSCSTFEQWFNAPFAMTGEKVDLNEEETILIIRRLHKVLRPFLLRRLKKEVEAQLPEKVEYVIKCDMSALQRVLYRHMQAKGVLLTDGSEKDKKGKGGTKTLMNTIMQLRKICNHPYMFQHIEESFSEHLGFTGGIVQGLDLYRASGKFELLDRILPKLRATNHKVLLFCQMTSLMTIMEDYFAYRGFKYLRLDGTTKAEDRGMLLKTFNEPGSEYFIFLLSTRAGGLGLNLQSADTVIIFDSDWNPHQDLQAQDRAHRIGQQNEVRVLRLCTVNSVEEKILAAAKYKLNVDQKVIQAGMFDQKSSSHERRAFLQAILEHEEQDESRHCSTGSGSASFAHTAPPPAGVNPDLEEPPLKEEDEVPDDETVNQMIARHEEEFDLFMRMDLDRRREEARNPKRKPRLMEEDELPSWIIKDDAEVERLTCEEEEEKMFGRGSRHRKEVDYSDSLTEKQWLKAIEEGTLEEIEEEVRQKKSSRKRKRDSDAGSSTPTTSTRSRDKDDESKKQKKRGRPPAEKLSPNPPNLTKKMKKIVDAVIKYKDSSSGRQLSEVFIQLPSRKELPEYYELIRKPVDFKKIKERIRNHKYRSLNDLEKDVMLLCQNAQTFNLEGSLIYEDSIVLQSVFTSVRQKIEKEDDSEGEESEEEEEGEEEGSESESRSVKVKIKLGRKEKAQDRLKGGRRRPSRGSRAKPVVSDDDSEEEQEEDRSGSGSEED

DC50 [1]	Dmax [2]	DC50 [2]	Structure (SMILES)	BRM HiBit Degradation Maximum (%) [1]
> 10 nM	< 50%		Cc1ncsc1-c1ccc([C@H](C)NC(=O)[C@@H]2C[C@@H](O)CN2C(=O)[C@@H](c2cc(OCCN3CCC(c4c[nH]c5nnc(-c6ccccc6O)cc45)CC3)no2)C(C)C)cc1 (racemic) [Compound 282, (2S,4R)-4-hydroxy-1-((R)-2-(3-(2-(4-(3-(2-hydroxyphenyl)-7H-pyrrolo[2,3-c]pyridazin-5-yl)piperidin-1-yl)ethoxy)isoxazol-5-yl)-3-methylbutanoyl)-N-((S)-1-(4-(4-methylthiazol-5-yl)phenyl)ethyl)pyrrolidine-2-carboxamide]	A (“A” indicates maximum degradation ≥ 75%)
> 10 nM	< 50%		Cc1ncsc1-c1ccc([C@H](C)NC(=O)[C@@H]2C[C@@H](O)CN2C(=O)[C@@H](c2cc(OCCN3CCC[C@@H](c4c[nH]c5nnc(-c6ccccc6O)cc45)C3)no2)C(C)C)cc1 (racemic) [Compound 283, (2S,4R)-4-hydroxy-1-((R)-2-(3-(2-((S)-3-(3-(2-hydroxyphenyl)-7H-pyrrolo[2,3-c]pyridazin-5-yl)piperidin-1-yl)ethoxy)isoxazol-5-yl)-3-methylbutanoyl)-N-((S)-1-(4-(4-methylthiazol-5-yl)phenyl)ethyl)pyrrolidine-2-carboxamide]	B (“B” indicates maximum degradation ≥ 50%)
> 10 nM	> 75%	> 100 nM	Cc1ncsc1-c1ccc([C@H](C)NC(=O)[C@@H]2C[C@@H](O)CN2C(=O)[C@@H](c2cc(OCCN(C)Cc3ccc(Cc4cc5cc(-c6ccccc6O)nnc5[nH]4)cc3)no2)C(C)C)cc1 (racemic) [Compound 284]	A (“A” indicates maximum degradation ≥ 75%)
> 100 nM	> 50%	> 100 nM	Cc1ncsc1-c1ccc([C@H](C)NC(=O)[C@@H]2C[C@@H](O)CN2C(=O)[C@@H](c2cc(OCCN3CCC(F)(c4cc5cc(-c6ccccc6O)nnc5[nH]4)CC3)no2)C(C)C)cc1 (racemic) [Compound 285, (2S,4R)-1-((R)-2-(3-(2-(4-fluoro-4-(3-(2-hydroxyphenyl)-7H-pyrrolo[2,3-c]pyridazin-6-yl)piperidin-1-yl)ethoxy)isoxazol-5-yl)-3-methylbutanoyl)-4-hydroxy-N-((S)-1-(4-(4-methylthiazol-5-yl)phenyl)ethyl)pyrrolidine-2-carboxamide]	A (“A” indicates maximum degradation ≥ 75%)
> 10 nM	< 50%		Cc1ncsc1-c1ccc([C@H](C)NC(=O)[C@@H]2C[C@@H](O)CN2C(=O)[C@@H](c2cc(OCCN3CCCC(c4cc5cc(-c6ccccc6O)nnc5[nH]4)C3)no2)C(C)C)cc1 (mixture of isomers) [Compound 286, (2S,4R)-4-hydroxy-1-((2R)-2-(3-(2-(3-(3-(2-hydroxyphenyl)-7H-pyrrolo[2,3-c]pyridazin-6-yl)piperidin-1-yl)ethoxy)isoxazol-5-yl)-3-methylbutanoyl)-N-((S)-1-(4-(4-methylthiazol-5-yl)phenyl)ethyl)pyrrolidine-2-carboxamide]	A (“A” indicates maximum degradation ≥ 75%)
> 100 nM	< 50%		Cc1ncsc1-c1ccc([C@H](C)NC(=O)[C@@H]2C[C@@H](O)CN2C(=O)[C@@H](c2cc(OCCN3CC(c4cc5cc(-c6cc(F)cc(Cl)c6O)nnc5[nH]4)C3)no2)C(C)C)cc1 (racemic) [Compound 287, (2S,4R)-1-((R)-2-(3-(2-(3-(3-(3-chloro-5-fluoro-2-hydroxyphenyl)-7H-pyrrolo[2,3-c]pyridazin-6-yl)azetidin-1-yl)ethoxy)isoxazol-5-yl)-3-methylbutanoyl)-4-hydroxy-N-((S)-1-(4-(4-methylthiazol-5-yl)phenyl)ethyl)pyrrolidine-2-carboxamide]	B (“B” indicates maximum degradation ≥ 50%)
> 100 nM	< 50%		Cc1ncsc1-c1ccc([C@H](C)NC(=O)[C@@H]2C[C@@H](O)CN2C(=O)[C@@H](c2cc(OCCN3CC(c4cc5cc(-c6cc(F)ccc6O)nnc5[nH]4)C3)no2)C(C)C)cc1 (racemic) [Compound 288, (2S,4R)-1-((R)-2-(3-(2-(3-(3-(5-fluoro-2-hydroxyphenyl)-7H-pyrrolo[2,3-c]pyridazin-6-yl)azetidin-1-yl)ethoxy)isoxazol-5-yl)-3-methylbutanoyl)-4-hydroxy-N-((S)-1-(4-(4-methylthiazol-5-yl)phenyl)ethyl)pyrrolidine-2-carboxamide]	A (“A” indicates maximum degradation ≥ 75%)
> 10 nM	< 50%		Cc1ncsc1-c1ccc([C@H](C)NC(=O)[C@@H]2C[C@@H](O)CN2C(=O)[C@@H](c2cc(OCCN3CC(C(C)(C)c4cc5cc(-c6ccccc6O)nnc5[nH]4)C3)no2)C(C)C)cc1 (racemic) [Compound 289, (2S,4R)-4-hydroxy-1-((R)-2-(3-(2-(3-(2-(3-(2-hydroxyphenyl)-7H-pyrrolo[2,3-c]pyridazin-6-yl)propan-2-yl)azetidin-1-yl)ethoxy)isoxazol-5-yl)-3-methylbutanoyl)-N-((S)-1-(4-(4-methylthiazol-5-yl)phenyl)ethyl)pyrrolidine-2-carboxamide]	A (“A” indicates maximum degradation ≥ 75%)
> 10 nM	> 50%	> 100 nM	Cc1ncsc1-c1ccc([C@H](C)NC(=O)[C@@H]2C[C@@H](O)CN2C(=O)[C@@H](c2cc(OCCN3CCC4(CC3)CC(c3cc5cc(-c6ccccc6O)nnc5[nH]3)C4)no2)C(C)C)cc1 (racemic) [Compound 290, (2S,4R)-4-hydroxy-1-((R)-2-(3-(2-(2-(3-(2-hydroxyphenyl)-7H-pyrrolo[2,3-c]pyridazin-6-yl)-7-azaspiro[3.5]nonan-7-yl)ethoxy)isoxazol-5-yl)-3-methylbutanoyl)-N-((S)-1-(4-(4-methylthiazol-5-yl)phenyl)ethyl)pyrrolidine-2-carboxamide]	A (“A” indicates maximum degradation ≥ 75%)
> 10 nM	< 50%		Cc1ncsc1-c1ccc([C@H](C)NC(=O)[C@@H]2C[C@@H](O)CN2C(=O)[C@@H](c2cc(OCCN3CCC[C@H](c4c[nH]c5nnc(-c6ccccc6O)cc45)C3)no2)C(C)C)cc1 (racemic) [Compound 291, (2S,4R)-4-hydroxy-1-((R)-2-(3-(2-((R)-3-(3-(2-hydroxyphenyl)-7H-pyrrolo[2,3-c]pyridazin-5-yl)piperidin-1-yl)ethoxy)isoxazol-5-yl)-3-methylbutanoyl)-N-((S)-1-(4-(4-methylthiazol-5-yl)phenyl)ethyl)pyrrolidine-2-carboxamide]	B (“B” indicates maximum degradation ≥ 50%)
> 100 nM	< 50%		Cc1ncsc1-c1ccc([C@H](C)NC(=O)[C@@H]2C[C@@H](O)CN2C(=O)[C@@H](c2cc(OCCN3CC[C@H](c4c[nH]c5nnc(-c6ccccc6O)cc45)C3)no2)C(C)C)cc1 (racemic) [Compound 292, (2S,4R)-4-hydroxy-1-((R)-2-(3-(2-((R)-3-(3-(2-hydroxyphenyl)-7H-pyrrolo[2,3-c]pyridazin-5-yl)pyrrolidin-1-yl)ethoxy)isoxazol-5-yl)-3-methylbutanoyl)-N-((S)-1-(4-(4-methylthiazol-5-yl)phenyl)ethyl)pyrrolidine-2-carboxamide]	B (“B” indicates maximum degradation ≥ 50%)
> 100 nM	> 50%	> 1000 nM	Cc1ncsc1-c1ccc(CNC(=O)[C@@H]2C[C@@H](O)CN2C(=O)[C@@H](NC(=O)CCN(C)C23CC(c4cc5cc(-c6ccccc6O)nnc5[nH]4)(C2)C3)C(C)(C)C)cc1 (racemic) [Compound 293, (2S,4R)-4-hydroxy-1-[(2S)-2-[3-([3-[3-(2-hydroxyphenyl)-7H-pyrrolo[2,3-c]pyridazin-6-yl]bicyclo[1.1.1]pentan-1-yl](methyl)amino)propanamido]-3,3-dimethylbutanoyl]-N-[[4-(4-methyl-1,3-thiazol-5-yl)phenyl]methyl]pyrrolidine-2-carboxamide]	A (“A” indicates maximum degradation ≥ 75%)
> 100 nM	< 50%		Cc1ncsc1-c1ccc([C@H](C)NC(=O)[C@@H]2C[C@@H](O)CN2C(=O)[C@@H](c2cc(OCCN3CC(Cc4cc5cc(-c6ccccc6O)nnc5[nH]4)C3)no2)C(C)C)cc1 (racemic) [Compound 294, (2S,4R)-4-hydroxy-1-((R)-2-(3-(2-(3-((3-(2-hydroxyphenyl)-7H-pyrrolo[2,3-c]pyridazin-6-yl)methyl)azetidin-1-yl)ethoxy)isoxazol-5-yl)-3-methylbutanoyl)-N-((S)-1-(4-(4-methylthiazol-5-yl)phenyl)ethyl)pyrrolidine-2-carboxamide]	A (“A” indicates maximum degradation ≥ 75%)
> 10 nM	> 75%	> 100 nM	Cc1ncsc1-c1ccc([C@H](C)NC(=O)[C@@H]2C[C@@H](O)CN2C(=O)[C@@H](c2cc(OCCNCc3ccc(Cc4cc5cc(-c6ccccc6O)nnc5[nH]4)cc3)no2)C(C)C)cc1 (racemic) [Compound 295]	A (“A” indicates maximum degradation ≥ 75%)
> 1000 nM	> 50%	> 1000 nM	Cc1ncsc1-c1ccc(CNC(=O)[C@@H]2C[C@@H](O)CN2C(=O)[C@@H](NC(=O)CCNC23CC(c4cc5cc(-c6ccccc6O)nnc5[nH]4)(C2)C3)C(C)(C)C)cc1 (racemic) [Compound 296]	A (“A” indicates maximum degradation ≥ 75%)
